{
  "source": "patent US6417159B1",
  "about": "(Queen's University at Kingston, priority 1996, dated 2002)",
  "key": {"[1]": {"tested_on": "PC12 cells", "assay": "Uptake of [125I]NGF into PC12 cells", "format": "cell-based, rat", "details": "20 pM or 0.2 nM [125I]NGF; saturating R3", "method": "PC12 cells were removed from culture dishes with CMF, washed, and incubated at a concentration of 10^6 per ml in Hepes-Krebs-Ringer (HKR) buffer buffer with 1 mg·ml^−1 BSA for 90 minutes at 37° C. in the presence of 40 pM [^125I]NGF in the absence and presence of excess unlabeled NGF, and in the absence and presence of R3 peptide. Aliquots of 100 μl were removed in replicates and mircocentrifuged at 10,000×g for 1 minute. Supernatants were removed, tips were cut from the microcentrifuge tube and counted in a gamma counter. Specific binding was defined as the difference between binding of the ligand in the absence and presence of unlabeled NGF, and fractional specific binding in the absence and presence of R3 peptide was compared. Studies of [^125I]NGF uptake into PC12 and PC12^nnr5 cells were carried out in the absence and presence of 10 μM R3 peptide and following a 24-hour exposure of PC12 cultures to 10 μM R3 peptide. Cells were eposed to 20 pM or 0.2 nM [^125I]NGF for periods of time up to 240 minutes (steady state) at 37° C. The cells were then briefly acid-washed as described by Bernd and Greene (1984), and aliquots were prepared for gamma counting as described. NGF was radioiodinated as described in Sutter et al. (1979b)."}, "[2]": {"target": "T1, TrkA (Rattus norvegicus, UniProt P35739)", "T1 construct": "endogenous in cells; host or cells: PC12", "T1 sequence (P35739 33-799)": "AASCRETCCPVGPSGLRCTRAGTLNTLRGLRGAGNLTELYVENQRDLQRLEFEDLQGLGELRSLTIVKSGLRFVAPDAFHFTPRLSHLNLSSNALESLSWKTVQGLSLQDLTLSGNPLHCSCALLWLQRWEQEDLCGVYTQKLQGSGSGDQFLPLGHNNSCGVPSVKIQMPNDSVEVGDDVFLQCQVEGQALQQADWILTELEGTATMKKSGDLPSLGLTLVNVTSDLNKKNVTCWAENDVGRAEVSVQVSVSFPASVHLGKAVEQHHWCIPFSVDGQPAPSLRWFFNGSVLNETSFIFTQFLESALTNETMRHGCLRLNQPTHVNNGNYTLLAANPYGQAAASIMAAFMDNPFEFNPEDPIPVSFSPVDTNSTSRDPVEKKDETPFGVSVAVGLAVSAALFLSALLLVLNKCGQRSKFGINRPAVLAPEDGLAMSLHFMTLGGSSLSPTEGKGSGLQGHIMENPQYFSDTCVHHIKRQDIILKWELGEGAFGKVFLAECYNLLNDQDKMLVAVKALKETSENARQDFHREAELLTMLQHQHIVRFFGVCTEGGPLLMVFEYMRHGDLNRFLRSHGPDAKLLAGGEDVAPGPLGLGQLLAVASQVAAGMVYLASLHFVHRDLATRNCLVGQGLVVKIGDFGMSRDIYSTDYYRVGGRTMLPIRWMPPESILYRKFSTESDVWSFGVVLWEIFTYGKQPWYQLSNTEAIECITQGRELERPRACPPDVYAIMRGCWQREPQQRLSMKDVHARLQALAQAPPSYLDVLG", "assay": "[125I]NGF affinity cross-linking to TrkA", "format": "binding", "details": "PC12 cells, 50 μM R3", "method": "FIG. 7A illustrates the influence of peptide R3 on affinity cross-linking of TrkA and p75^NTR. Intact PC12 cells were treated with 50 μM R3 for 24 h (preinc.) in medium, harvested with CMF medium, and suspended at a concentration of 10^6·ml^−1 (or 10^7·m^−1 for immunoprecipitation studies) in HKR buffer. Cells were then incubated in the presence or absence of R3 (coinc.) for 15 min at 37° C. and cooled in ice. Cross-linking was performed by incubating cells with 1 nM [^125I]-NGF for 2 h at 4° C., adding EDC ([…]) and NHS (2 mM) or BS^3 (0.4 mM) as indicated, and incubating for 30 min at 25° C. Cells were washed three times in HKR buffer and the pellet dissolved in reducing SDS sample buffer or in lysis buffer (1% NP-40, 10% glycerol, 1 mM PMSF, 10 μg-ml^−1 aprotinin, 1 μg/ml leupeptin, […] o-vanadate in TBS) for immunoprecipitation (lanes 4 and 8). For immunoprecipitation, the cellular debris was removed by centrifugation and the supernatant incubated with 1 μg anti-p75^NTR monoclonal Ab 192 (Cedarlane Laboratories Ltd.) or 1 μg anti-TrkA polyclonal Ab (a gift from Dr. W. Mobley, University of California, San Francisco) for 4 h at 4° C. Immunoprecipates were isolated by incubating with 50 μl of a 50% solution of protein A-SEPHAROSE™ (anti-Trk) or goat anti-mouse agarose (Ab 192) for 2 h at 4° C. Precipitates were washed 3 times in lysis buffer and dissolved in sample buffer. […]"}},
  "data": [
    {"sequence": "LDALLAALRRIQR [R3]", "values": [
      {"measurement": "Rates of [125I]NGF uptake, in words", "setting": "[1]", "result": "not influenced"},
      {"measurement": "Affinity cross-linking of [125I]NGF to TrkA monomers or homodimers, in words", "setting": "[2]", "result": "not affected"}
    ]}
  ]
}
